This passage reports Ki and IC50 results from ChEMBL document CHEMBL4184336, “Structure-Guided Modification of Heterocyclic Antagonists of the P2Y14 Receptor” (J Med Chem, 2018).

In assay [1] the target is Sodium-dependent noradrenaline transporter (Homo sapiens, UniProt P23975). Put plainly: Displacement of [3H]-Nisoxetine from human NET expressed in HEK293 cell membranes after 90 mins by scintillation counting method. (In a radioligand displacement assay an active substance lowers the binding of a labelled ligand.)
Sodium-dependent noradrenaline transporter, sequence (P23975 whole entry): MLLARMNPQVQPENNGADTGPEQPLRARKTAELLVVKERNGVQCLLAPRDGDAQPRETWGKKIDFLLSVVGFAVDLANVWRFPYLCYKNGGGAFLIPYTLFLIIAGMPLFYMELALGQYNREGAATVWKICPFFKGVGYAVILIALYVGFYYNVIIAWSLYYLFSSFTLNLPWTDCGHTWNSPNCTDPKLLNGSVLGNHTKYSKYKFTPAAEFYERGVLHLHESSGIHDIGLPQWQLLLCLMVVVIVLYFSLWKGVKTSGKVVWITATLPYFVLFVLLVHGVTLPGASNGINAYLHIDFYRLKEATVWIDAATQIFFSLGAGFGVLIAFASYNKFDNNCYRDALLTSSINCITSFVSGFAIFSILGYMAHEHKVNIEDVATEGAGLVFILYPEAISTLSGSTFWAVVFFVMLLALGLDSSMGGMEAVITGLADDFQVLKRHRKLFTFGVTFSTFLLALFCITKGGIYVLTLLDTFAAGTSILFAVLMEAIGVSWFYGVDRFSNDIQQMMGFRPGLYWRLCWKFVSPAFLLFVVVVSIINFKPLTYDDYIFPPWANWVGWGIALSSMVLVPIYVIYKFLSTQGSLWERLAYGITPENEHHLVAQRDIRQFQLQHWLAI
Assay [2] deals with Delta-type opioid receptor (Homo sapiens, UniProt P41143). Put plainly: Displacement of [3H]-DADLE from human delta opioid receptor expressed in HEK293 cells after 90 mins by scintillation counting method. Type of assay: cell-based.
The target of assay [3] is T1, P2Y purinoceptor 14 (Homo sapiens, UniProt Q15391).
T1 sequence (Q15391 whole entry): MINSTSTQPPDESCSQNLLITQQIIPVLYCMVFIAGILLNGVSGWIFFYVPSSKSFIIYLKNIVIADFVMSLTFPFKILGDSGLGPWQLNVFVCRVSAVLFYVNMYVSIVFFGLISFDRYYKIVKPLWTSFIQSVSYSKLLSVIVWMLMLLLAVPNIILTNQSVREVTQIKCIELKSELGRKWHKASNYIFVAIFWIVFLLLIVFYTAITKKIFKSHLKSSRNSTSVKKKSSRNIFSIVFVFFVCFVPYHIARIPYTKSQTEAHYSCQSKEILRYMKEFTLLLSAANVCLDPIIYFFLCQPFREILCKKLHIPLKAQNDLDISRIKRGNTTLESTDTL
Description: Displacement of MRS4174 from human P2Y14R expressed in CHO cells preincubated for 30 mins followed by MRS4174 addition measured after 30 mins by flow cytometric method

In assay [4] the target is 5-hydroxytryptamine receptor 1A (Homo sapiens, UniProt P08908). Put plainly: Displacement of [3H]-Way100635 from human 5-HT1A receptor expressed in CHO cell membranes after 90 mins by scintillation counting method.
5-hydroxytryptamine receptor 1A, sequence (P08908 whole entry): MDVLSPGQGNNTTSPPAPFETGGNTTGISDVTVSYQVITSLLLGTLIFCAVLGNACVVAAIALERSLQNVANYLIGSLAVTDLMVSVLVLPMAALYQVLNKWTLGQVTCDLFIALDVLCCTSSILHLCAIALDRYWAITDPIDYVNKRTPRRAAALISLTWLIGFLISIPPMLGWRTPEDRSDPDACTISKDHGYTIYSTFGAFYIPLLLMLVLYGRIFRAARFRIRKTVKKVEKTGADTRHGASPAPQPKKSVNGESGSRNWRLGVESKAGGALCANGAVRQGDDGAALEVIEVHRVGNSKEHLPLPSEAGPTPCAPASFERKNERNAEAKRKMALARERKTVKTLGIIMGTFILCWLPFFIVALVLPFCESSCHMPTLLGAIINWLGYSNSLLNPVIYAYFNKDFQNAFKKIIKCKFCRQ
Assay [5] addresses 5-hydroxytryptamine receptor 2A (Homo sapiens, UniProt P28223). In words: Displacement of [3H]-Ketanserin from human 5-HT2A receptor expressed in HEK293T cell membranes after 90 mins by scintillation counting method.
Assay [6] deals with Alpha-1A adrenergic receptor (Homo sapiens, UniProt P35348). Put plainly: Displacement of [3H]-Prazosin from human adrenergic alpha1A receptor after 90 mins by scintillation counting method.
For assay [7], the target named is Alpha-1B adrenergic receptor (Homo sapiens, UniProt P35368). In words: Displacement of [3H]-Prazosin from human adrenergic alpha1B receptor after 90 mins by scintillation counting method.
Alpha-1B adrenergic receptor, sequence (P35368 whole entry): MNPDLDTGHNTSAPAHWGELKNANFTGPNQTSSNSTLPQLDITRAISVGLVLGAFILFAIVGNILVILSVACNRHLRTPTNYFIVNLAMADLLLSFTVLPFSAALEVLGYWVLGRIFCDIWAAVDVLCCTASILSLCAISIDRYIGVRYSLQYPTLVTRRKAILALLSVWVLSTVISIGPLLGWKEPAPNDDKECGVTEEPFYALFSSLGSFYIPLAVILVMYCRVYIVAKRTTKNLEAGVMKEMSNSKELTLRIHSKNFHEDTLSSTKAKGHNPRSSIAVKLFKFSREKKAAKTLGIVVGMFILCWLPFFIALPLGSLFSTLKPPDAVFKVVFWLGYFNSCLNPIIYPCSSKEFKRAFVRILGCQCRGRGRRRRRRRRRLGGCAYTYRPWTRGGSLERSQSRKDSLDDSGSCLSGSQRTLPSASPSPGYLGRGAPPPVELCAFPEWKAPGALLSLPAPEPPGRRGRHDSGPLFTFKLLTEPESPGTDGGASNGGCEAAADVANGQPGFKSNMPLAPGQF
Assay [8] addresses Alpha-1D adrenergic receptor (Homo sapiens, UniProt P25100). Put plainly: Displacement of [3H]-Prazosin from human adrenergic alpha1D receptor after 90 mins by scintillation counting method.
Assay [9] addresses Alpha-2A adrenergic receptor (Homo sapiens, UniProt P08913). Put plainly: Displacement of [3H]Rauwolscine from human adrenergic alpha2A receptor expressed in MDCK cell membranes after 90 mins by scintillation counting method.
Assay [10] concerns the target Alpha-2B adrenergic receptor (Homo sapiens, UniProt P18089). Put plainly: Displacement of [3H]Rauwolscine from human adrenergic alpha2B receptor expressed in HEK293T cell membranes after 90 mins by scintillation counting method.
Assay [11] addresses D(1A) dopamine receptor (Homo sapiens, UniProt P21728). Put plainly: Displacement of [3H]SCH23390 from human dopamine D1 receptor expressed in HEK293T cell membranes after 90 mins by scintillation counting method.
The target in assay [12] is D(2) dopamine receptor (Homo sapiens, UniProt P14416). Put plainly: Displacement of [3H]N-methylspiperone from human dopamine D2 receptor expressed in HEK293T cell membranes after 90 mins by scintillation counting method.
D(2) dopamine receptor, sequence (P14416 whole entry): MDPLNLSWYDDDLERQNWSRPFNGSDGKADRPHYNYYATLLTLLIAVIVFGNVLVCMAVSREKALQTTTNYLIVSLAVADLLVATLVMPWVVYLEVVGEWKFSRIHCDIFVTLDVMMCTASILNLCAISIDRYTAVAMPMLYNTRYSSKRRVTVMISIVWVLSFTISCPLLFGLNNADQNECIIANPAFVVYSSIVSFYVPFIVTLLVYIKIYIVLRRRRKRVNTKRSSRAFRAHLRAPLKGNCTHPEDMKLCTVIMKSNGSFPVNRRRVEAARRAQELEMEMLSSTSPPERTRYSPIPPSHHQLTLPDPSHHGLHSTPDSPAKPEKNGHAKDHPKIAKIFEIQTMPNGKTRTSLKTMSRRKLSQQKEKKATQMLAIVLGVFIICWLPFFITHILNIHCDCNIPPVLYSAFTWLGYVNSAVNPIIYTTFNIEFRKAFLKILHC
Assay [13] addresses D(3) dopamine receptor (Homo sapiens, UniProt P35462). Put plainly: Displacement of [3H]N-methylspiperone from human dopamine D3 receptor expressed in HEK293T cell membranes after 90 mins by scintillation counting method.
Assay [14] concerns the target D(1B) dopamine receptor (Homo sapiens, UniProt P21918). In words: Displacement of [3H]SCH23390 from human dopamine D5 receptor expressed in HEK293T cell membranes after 90 mins by scintillation counting method.
Assay [15] has as its target Histamine H2 receptor (Homo sapiens, UniProt P25021). In words: Displacement of [125I]-Iodoaminopotentidine from human histamine H2 receptor expressed in HEK293T cell membranes after 90 mins by scintillation counting method.
The target in assay [16] is Sigma intracellular receptor 2 (Homo sapiens, UniProt Q5BJF2). Put plainly: Displacement of [3H]-DTG from human sigma2 receptor expressed in HEK293T cell membranes after 90 mins by scintillation counting method.
For assay [17], the target named is Sodium-dependent dopamine transporter (Homo sapiens, UniProt Q01959). In words: Displacement of [3H]-WIN35428 from human DAT after 90 mins by scintillation counting method.
The target in assay [18] is 5-hydroxytryptamine receptor 6 (Homo sapiens, UniProt P50406). In words: Displacement of [3H]-LSD from human 5-HT6 receptor expressed in HEK293 cell membranes after 90 mins by scintillation counting method.
Assay [19] addresses Beta-3 adrenergic receptor (Homo sapiens, UniProt P13945). Put plainly: Displacement of [3H]-CGP12177 from human adrenergic beta-3 receptor expressed in HEK Flp-In cell membranes after 90 mins by scintillation counting method.
Assay [20] has as its target Kappa-type opioid receptor (Homo sapiens, UniProt P41145). In words: Displacement of [3H]-U69593 from human KOR expressed in HEK293 cell membranes after 90 mins by scintillation counting method.
Assay [21] has as its target Translocator protein (Rattus norvegicus, UniProt P16257). Put plainly: Displacement of [3H]-PK11195 from rat brain TSPO after 90 mins by scintillation counting method.
Assay [22] deals with Sodium-dependent serotonin transporter (Homo sapiens, UniProt P31645). Put plainly: Displacement of [3H]-Citalopram from human SERT expressed in HEK293 cell membranes after 90 mins by scintillation counting method.
Sodium-dependent serotonin transporter, sequence (P31645 whole entry): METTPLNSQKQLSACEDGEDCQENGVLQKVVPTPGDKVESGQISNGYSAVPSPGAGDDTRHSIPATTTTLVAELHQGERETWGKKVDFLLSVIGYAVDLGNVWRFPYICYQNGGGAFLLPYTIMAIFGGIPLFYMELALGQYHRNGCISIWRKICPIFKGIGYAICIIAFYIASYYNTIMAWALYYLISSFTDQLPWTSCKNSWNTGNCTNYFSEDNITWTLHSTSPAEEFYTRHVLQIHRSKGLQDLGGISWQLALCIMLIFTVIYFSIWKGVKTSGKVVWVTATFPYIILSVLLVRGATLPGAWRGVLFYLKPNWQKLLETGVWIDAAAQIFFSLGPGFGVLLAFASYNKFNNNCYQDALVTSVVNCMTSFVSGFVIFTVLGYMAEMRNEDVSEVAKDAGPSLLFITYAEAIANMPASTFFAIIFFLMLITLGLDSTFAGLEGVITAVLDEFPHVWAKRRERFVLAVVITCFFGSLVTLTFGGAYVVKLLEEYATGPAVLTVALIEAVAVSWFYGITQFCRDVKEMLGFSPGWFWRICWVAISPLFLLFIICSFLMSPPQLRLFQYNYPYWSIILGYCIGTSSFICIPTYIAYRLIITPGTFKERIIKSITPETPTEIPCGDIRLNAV

Histamine H2 receptor, sequence (P25021 whole entry): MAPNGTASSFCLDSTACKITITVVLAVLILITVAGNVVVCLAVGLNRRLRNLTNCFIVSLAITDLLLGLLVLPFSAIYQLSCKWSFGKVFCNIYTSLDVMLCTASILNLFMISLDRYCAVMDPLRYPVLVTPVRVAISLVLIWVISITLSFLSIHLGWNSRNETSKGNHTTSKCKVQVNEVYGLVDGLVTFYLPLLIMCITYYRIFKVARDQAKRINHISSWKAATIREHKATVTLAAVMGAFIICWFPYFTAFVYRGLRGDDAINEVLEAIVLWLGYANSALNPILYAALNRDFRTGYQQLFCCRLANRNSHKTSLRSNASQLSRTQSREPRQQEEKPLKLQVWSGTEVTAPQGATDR
Alpha-2A adrenergic receptor, sequence (P08913 whole entry): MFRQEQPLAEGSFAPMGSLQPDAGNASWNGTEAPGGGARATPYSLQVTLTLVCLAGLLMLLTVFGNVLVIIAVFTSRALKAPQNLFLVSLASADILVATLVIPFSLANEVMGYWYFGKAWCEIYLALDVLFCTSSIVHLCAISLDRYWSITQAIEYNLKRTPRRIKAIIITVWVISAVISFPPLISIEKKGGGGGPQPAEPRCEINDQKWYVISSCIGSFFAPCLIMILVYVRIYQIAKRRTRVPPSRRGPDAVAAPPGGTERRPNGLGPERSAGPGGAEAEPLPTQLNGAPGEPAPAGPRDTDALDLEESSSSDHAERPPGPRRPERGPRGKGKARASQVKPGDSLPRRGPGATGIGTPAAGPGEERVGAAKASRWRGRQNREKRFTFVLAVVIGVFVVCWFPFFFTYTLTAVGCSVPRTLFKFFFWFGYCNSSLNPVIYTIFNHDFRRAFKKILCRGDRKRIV
D(1B) dopamine receptor, sequence (P21918 whole entry): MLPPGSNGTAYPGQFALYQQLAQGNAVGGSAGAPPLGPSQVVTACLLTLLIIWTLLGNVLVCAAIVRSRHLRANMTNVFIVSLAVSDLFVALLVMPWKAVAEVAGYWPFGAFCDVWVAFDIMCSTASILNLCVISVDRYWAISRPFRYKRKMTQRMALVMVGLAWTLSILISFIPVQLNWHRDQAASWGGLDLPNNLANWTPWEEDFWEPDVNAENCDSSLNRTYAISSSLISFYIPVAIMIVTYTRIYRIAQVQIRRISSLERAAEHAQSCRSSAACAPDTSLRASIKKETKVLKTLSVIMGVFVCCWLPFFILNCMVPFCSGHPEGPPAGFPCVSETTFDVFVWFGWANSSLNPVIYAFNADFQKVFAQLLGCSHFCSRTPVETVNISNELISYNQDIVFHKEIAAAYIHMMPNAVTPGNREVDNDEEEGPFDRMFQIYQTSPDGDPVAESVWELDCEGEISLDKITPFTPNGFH
Translocator protein, sequence (P16257 whole entry, looked up): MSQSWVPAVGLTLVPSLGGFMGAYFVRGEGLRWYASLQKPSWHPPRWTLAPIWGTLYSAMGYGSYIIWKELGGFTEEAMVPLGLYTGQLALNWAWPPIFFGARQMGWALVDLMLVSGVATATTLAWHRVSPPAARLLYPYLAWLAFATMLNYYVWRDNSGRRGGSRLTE
D(3) dopamine receptor, sequence (P35462 whole entry): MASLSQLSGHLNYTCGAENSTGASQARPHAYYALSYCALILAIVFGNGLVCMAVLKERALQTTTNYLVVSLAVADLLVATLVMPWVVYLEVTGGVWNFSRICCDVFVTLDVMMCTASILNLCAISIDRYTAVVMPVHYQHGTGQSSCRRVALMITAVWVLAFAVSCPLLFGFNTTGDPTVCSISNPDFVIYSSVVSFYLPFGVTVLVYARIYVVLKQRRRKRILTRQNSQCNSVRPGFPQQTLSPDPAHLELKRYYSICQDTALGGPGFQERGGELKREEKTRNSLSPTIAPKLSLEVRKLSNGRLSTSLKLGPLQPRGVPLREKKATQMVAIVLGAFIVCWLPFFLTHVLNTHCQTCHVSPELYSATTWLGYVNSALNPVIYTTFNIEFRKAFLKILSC
D(1A) dopamine receptor, sequence (P21728 whole entry): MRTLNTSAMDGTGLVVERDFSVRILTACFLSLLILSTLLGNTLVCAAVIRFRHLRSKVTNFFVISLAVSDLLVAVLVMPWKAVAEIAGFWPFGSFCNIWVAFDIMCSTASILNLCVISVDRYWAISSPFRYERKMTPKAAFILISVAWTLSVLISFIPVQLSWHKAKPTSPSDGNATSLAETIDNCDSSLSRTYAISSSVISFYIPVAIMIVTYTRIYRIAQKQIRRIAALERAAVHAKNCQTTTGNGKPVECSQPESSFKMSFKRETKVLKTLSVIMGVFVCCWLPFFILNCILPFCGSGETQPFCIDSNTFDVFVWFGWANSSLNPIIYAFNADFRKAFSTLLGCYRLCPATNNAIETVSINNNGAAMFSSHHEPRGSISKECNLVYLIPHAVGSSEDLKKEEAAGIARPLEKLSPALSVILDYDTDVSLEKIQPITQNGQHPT

On to `O=C(O)c1cc(O)c2ccc(-c3ccc(C(F)(F)F)cc3)cc2c1`, for which the inhibition constant (Ki) – broadly, a measure of affinity in units of concentration, obtained from inhibition or displacement – in [1] stood at 5800 nM. Take `NS(=O)(=O)c1ccc(-c2cc(C(=O)O)cc(-n3cc(-c4ccc(C(F)(F)F)cc4)nn3)c2)cc1`: the Ki in assay [2] turned out to be 3260 nM. Also, in assay [3], the IC50 (in general, the concentration that gives 50% inhibition) was found to be 608 nM. Regarding `NCCCCCCn1cc(CCCCN2CCC(c3ccc(-c4cc(C(=O)O)cc5cc(-c6ccc(C(F)(F)F)cc6)ccc45)cc3)CC2)nn1`, the inhibition constant Ki was determined as 1870 nM in assay [1]; 5650 nM in assay [4]; 8400 nM in assay [5]; 1770 nM in assay [6]; 1110 nM in [7]; 1270 nM in [8]. The inhibition constant (Ki) in assay [9] stood at 28 nM; in assay [10], 984 nM; in [11], 7600 nM; in [12], 8210 nM; in [13], 1600 nM; in [14], 1070 nM. For the same molecule, the inhibitory constant (Ki) turned out to be 365 nM in [15], 1200 nM in assay [16] and 1070 nM in [17]. Besides, in assay [3], inhibition was half-maximal at 25.4 nM (IC50). On to `O=C(O)c1cc(-c2ccc(S(=O)(=O)N3CCNCC3)s2)cc(-n2cc(-c3ccc(C(F)(F)F)cc3)nn2)c1`, for which, in [3], it took 1510 nM to reach half-maximal inhibition (IC50). In assay [3], `FC(F)(F)c1ccc(-c2cn(-c3cc(-c4ccc(C5CCNCC5)cc4)cc(-c4nnn[nH]4)c3)nn2)cc1` returned a 50% inhibitory concentration (IC50) of 958 nM. In turn, `CNC(=O)c1ccc(-c2cc(C(=O)O)cc(-n3cc(-c4ccc(C(F)(F)F)cc4)nn3)c2)cc1` showed an IC50 in assay [3] of 563 nM. On the same count and under the same terms, the value for `O=C(O)c1cc(-c2ccc(S(=O)(=O)N3CCNCC3)cc2)cc(-n2cc(-c3ccc(C(F)(F)F)cc3)nn2)c1` was 1640 nM; that for `O=C(O)c1cc(Br)cc(-n2cc(-c3ccc(C(F)(F)F)cc3)nn2)c1` was 26800 nM. In assay [3], `C#CCCCCN1CCC(c2ccc(-c3cc(C(=O)O)cc4cc(-c5ccc(C(F)(F)F)cc5)ccc34)cc2)CC1` displayed a 50% inhibitory concentration (IC50) of 763 nM. Same read-out and setting: the value for `NC(=O)c1ccc(-c2cc(C(=O)O)cc(-n3cc(-c4ccc(C(F)(F)F)cc4)nn3)c2)nc1` was 516 nM; that for `CC(C)(C)NC(=O)c1ccc(-c2cc(C(=O)O)cc(-n3cc(-c4ccc(C(F)(F)F)cc4)nn3)c2)cc1` was 7530 nM; that for `CC(=O)NCCCCCCn1cc(CCCCN2CCC(c3ccc(-c4cc(C(=O)O)cc5cc(-c6ccc(C(F)(F)F)cc6)ccc45)cc3)CC2)nn1` was 83.5 nM. Same read-out and setting: the value for `NC(=O)c1ccc(-c2cc(-c3nnn[nH]3)cc(-n3cc(-c4ccc(C(F)(F)F)cc4)nn3)c2)cc1` was 2430 nM. On to `NCCCNC(=O)c1ccc(-c2cc(-c3nnn[nH]3)cc(-n3cc(-c4ccc(C(F)(F)F)cc4)nn3)c2)s1`, for which the IC50 in assay [3] worked out at 1190 nM.

`NC(=O)c1cnc(-c2cc(C(=O)O)cc(-n3cc(-c4ccc(C(F)(F)F)cc4)nn3)c2)cn1` displayed an IC50 in assay [3] of 566 nM.

In the case of `CC(C)(C)OC(=O)NCCCCCCn1cc(CCCCN2CCC(c3ccc(-c4cc(C(=O)O)cc5cc(-c6ccc(C(F)(F)F)cc6)ccc45)cc3)CC2)nn1`, the Ki was determined as 5280 nM in assay [9]; 829 nM in assay [15]; 7900 nM in [18]; 2360 nM in assay [19]; 4060 nM in [20]; 5600 nM in [21]. Also, the inhibition constant (Ki) in assay [22] is 2080 nM. Half-maximal inhibition in [3] (IC50) was put at 133 nM.

The molecule `CC(C)(C)OC(=O)N1CCN(Cc2ccc(-c3cc(C(=O)O)cc(-n4cc(-c5ccc(C(F)(F)F)cc5)nn4)c3)s2)CC1` yielded a half-inhibitory concentration (IC50) in [3] of 67200 nM. Still for that read-out and setting: the value for `NCCCNC(=O)c1csc(-c2cc(C(=O)O)cc(-n3cc(-c4ccc(C(F)(F)F)cc4)nn3)c2)c1` was 735 nM; that for `O=C(O)c1cc(-c2ccc(S(=O)(=O)NCCCCO)s2)cc(-n2cc(-c3ccc(C(F)(F)F)cc3)nn2)c1` was 8420 nM; that for `CC(C)(C)NC(=O)c1ccc(-c2cc(-c3nnn[nH]3)cc(-n3cc(-c4ccc(C(F)(F)F)cc4)nn3)c2)cc1` was 20700 nM. In the case of `CC(C)(C)OC(=O)NCCCNC(=O)c1ccc(-c2cc(C(=O)O)cc(-n3cc(-c4ccc(C(F)(F)F)cc4)nn3)c2)s1`, the IC50 in assay [3] was 2280 nM. Compared with the last molecule, the IC50 is about 9.1-fold lower.

In assay [3], `CCCNC(=O)c1ccc(-c2cc(C(=O)O)cc(-n3cc(-c4ccc(C(F)(F)F)cc4)nn3)c2)cc1` registered a 50% inhibitory concentration (IC50) of 1490 nM. For the molecule `CC(C)(C)OC(=O)NCCCCNS(=O)(=O)c1ccc(-c2cc(C(=O)O)cc(-n3cc(-c4ccc(C(F)(F)F)cc4)nn3)c2)s1`, the IC50 in assay [3] is 13600 nM. The same measure, in the same setting: the value for `CC(C)(C)OC(=O)N1CCN(S(=O)(=O)c2ccc(-c3cc(C(=O)O)cc(-n4cc(-c5ccc(C(F)(F)F)cc5)nn4)c3)cc2)CC1` was more than 50000 nM; that for `CC(C)(C)OC(=O)NCCCNS(=O)(=O)c1ccc(-c2cc(C(=O)O)cc(-n3cc(-c4ccc(C(F)(F)F)cc4)nn3)c2)s1` was 9330 nM; that for `NCCCNC(=O)c1ccc(-c2cc(C(=O)O)cc(-n3cc(-c4ccc(C(F)(F)F)cc4)nn3)c2)o1` was 10900 nM. On the same count and under the same terms, the value for `NCCCCNS(=O)(=O)c1ccc(-c2cc(C(=O)O)cc(-n3cc(-c4ccc(C(F)(F)F)cc4)nn3)c2)s1` was 2180 nM; that for `O=C(O)c1cc(-c2ccc(C(=O)N3CCNCC3)s2)cc(-n2cc(-c3ccc(C(F)(F)F)cc3)nn2)c1` was 12600 nM. On the same count and under the same terms, the value for `NC(=O)c1ccc(-c2cc(C(=O)O)cc(-n3cc(-c4ccc(C(F)(F)F)cc4)nn3)c2)cn1` was 1410 nM. As to `CC(C)(C)OC(=O)N1CCN(S(=O)(=O)c2ccc(-c3cc(C(=O)O)cc(-n4cc(-c5ccc(C(F)(F)F)cc5)nn4)c3)s2)CC1`, the IC50 in assay [3] came to 54700 nM. Still for that read-out and setting: the value for `NCCNS(=O)(=O)c1ccc(-c2cc(C(=O)O)cc(-n3cc(-c4ccc(C(F)(F)F)cc4)nn3)c2)s1` was 2260 nM; that for `O=C(O)c1cc(-c2ccc(CN3CCNCC3)s2)cc(-n2cc(-c3ccc(C(F)(F)F)cc3)nn2)c1` was 1960 nM; that for `NCCCNC(=O)c1cc(-c2cc(C(=O)O)cc(-n3cc(-c4ccc(C(F)(F)F)cc4)nn3)c2)cs1` was 1750 nM. `CC(C)(C)OC(=O)NCCNS(=O)(=O)c1ccc(-c2cc(C(=O)O)cc(-n3cc(-c4ccc(C(F)(F)F)cc4)nn3)c2)s1` showed an IC50 in [3] of 5920 nM. Still for that read-out and setting: the value for `CC(C)(C)OC(=O)N1CCN(C(=O)c2ccc(-c3cc(C(=O)O)cc(-n4cc(-c5ccc(C(F)(F)F)cc5)nn4)c3)s2)CC1` was 53000 nM; that for `NCCCNS(=O)(=O)c1ccc(-c2cc(C(=O)O)cc(-n3cc(-c4ccc(C(F)(F)F)cc4)nn3)c2)s1` was 756 nM; that for `FC(F)(F)c1ccc(-c2cn(-c3cc(Br)cc(-c4nnn[nH]4)c3)nn2)cc1` was 33100 nM. The molecule `O=C(O)c1cc(O)cc(-n2cc(-c3ccc(C(F)(F)F)cc3)nn2)c1` displayed an IC50 in assay [3] of 16400 nM. Same read-out and setting: the value for `NS(=O)(=O)c1ccc(-c2cc(C(=O)O)cc(-n3cc(-c4ccc(C(F)(F)F)cc4)nn3)c2)s1` was 6440 nM. In turn, `NC(=O)c1ccc(-c2cc(C(=O)O)cc(-n3cc(-c4ccc(C(F)(F)F)cc4)nn3)c2)o1` returned an IC50 in assay [3] of 3110 nM. In turn, `CCNC(=O)c1ccc(-c2cc(C(=O)O)cc(-n3cc(-c4ccc(C(F)(F)F)cc4)nn3)c2)cc1` showed a 50% inhibitory concentration (IC50) in [3] of 899 nM.
